# Patent publication US9758537B2 (Achillion Pharmaceuticals, Inc., priority 2014, dated 2017)
# Target: Human factor D (Homo sapiens (Human), UniProt P00746)
# Test: Human Factor D Assay
# Format: biochemical
# Details: human factor D 80 nM, substrate Z-L-Lys-SBzl, DTNB, OD405
# Experimental: Human factor D (purified from human serum, Complement Technology, Inc.) at 80 nM final concentration is incubated with test compound at various concentrations for 5 minutes at room temperature in 50 mM Tris, 1M NaCl, pH 7.5. A synthetic substrate Z-L-Lys-SBzl and DTNB (Ellman's reagent) are added to final concentrations of 10 μM each. The increase in color is recorded at OD405 nm in a microplate in kinetic mode over 30 minutes with 30 second time points in a […]. IC50 values are calculated by non-linear regression from the percentage of inhibition of complement factor D activity as a function of test compound concentration.
# Sequence of Human factor D (P00746 26-253): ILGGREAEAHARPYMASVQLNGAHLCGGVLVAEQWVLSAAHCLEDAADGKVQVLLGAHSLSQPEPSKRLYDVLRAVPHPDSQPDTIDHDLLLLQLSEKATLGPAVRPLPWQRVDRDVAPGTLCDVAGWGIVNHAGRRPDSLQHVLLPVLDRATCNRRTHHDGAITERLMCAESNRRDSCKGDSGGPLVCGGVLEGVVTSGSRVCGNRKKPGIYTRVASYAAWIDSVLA
row,SMILES,IC50 [nM]
1,"CC(=O)n1cc(CC(=O)N2C[C@H](F)C[C@H]2C(=O)Nc2cccc(-c3ccccc3Cl)c2F)c2ccsc21 [Compound 90, (2S,4R)-1-(2-(6-acetyl-6H-thieno[2,3-b]pyrrol-4-yl)acetyl)-N-(2′-chloro-2-fluorobiphenyl-3-yl)-4-fluoropyrrolidine-2-carboxamide]",< 1000
2,"CC(=O)Nc1cccc2c1c(C(C)=O)cn2CC(=O)N1C[C@H](F)C[C@H]1C(=O)Nc1cccc(-c2ccccc2Cl)c1F [Compound 91, (2S,4R)-1-(2-(4-acetamido-3-acetyl-1H-indol-1-yl)acetyl)-N-(2′-chloro-2-fluorobiphenyl-3-yl)-4-fluoropyrrolidine-2-carboxamide]",> 10000
3,"NC(=O)c1nn(CC(=O)N2C[C@H](F)C[C@H]2C(=O)Nc2cccc(-c3ccc(F)c(F)c3Cl)c2F)c2ccccc12 [Compound 92, 1-(2-((2S,4R)-2-(2′-chloro-2,3′,4′-trifluorobiphenyl-3-ylcarbamoyl)-4-fluoropyrrolidin-1-yl)-2-oxoethyl)-1H-indazole-3-carboxamide]",< 1000
4,"CC(=O)c1cn(CC(=O)N2C[C@H](F)C[C@H]2C(=O)Nc2cccc(-c3ccc(F)c(F)c3Cl)c2F)c2ccccc12 [Compound 93, (2S,4R)-1-(2-(3-acetyl-1H-indol-1-yl)acetyl)-N-(2′-chloro-2,3′,4′-trifluorobiphenyl-3-yl)-4-fluoropyrrolidine-2-carboxamide]",< 1000
5,"NC(=O)c1nn(CC(=O)N2C[C@H](F)C[C@H]2C(=O)Nc2cccc(-c3cc(F)cc(F)c3Cl)c2F)c2ccccc12 [Compound 94, 1-(2-((2S,4R)-2-(2′-chloro-2,3′,5′-trifluorobiphenyl-3-ylcarbamoyl)-4-fluoropyrrolidin-1-yl)-2-oxoethyl)-1H-indazole-3-carboxamide]",< 1000
6,"CC(=O)c1cn(CC(=O)N2C[C@H](F)C[C@H]2C(=O)Nc2cccc(-c3cc(F)cc(F)c3Cl)c2F)c2ccccc12 [Compound 95, (2S,4R)-1-(2-(3-acetyl-1H-indol-1-yl)acetyl)-N-(2′-chloro-2,3′,5′-trifluorobiphenyl-3-yl)-4-fluoropyrrolidine-2-carboxamide]",< 1000
7,"CC(=O)c1cn(CC(=O)N2C[C@H](F)C[C@H]2C(=O)Nc2cccc(-c3ccccc3Cl)c2F)c2cccc(C#N)c12 [Compound 97, (2S,4R)-1-(2-(3-acetyl-4-cyano-1H-indol-1-yl)acetyl)-N-(2′-chloro-2-fluorobiphenyl-3-yl)-4-fluoropyrrolidine-2-carboxamide]",< 1000
8,"NC(=O)c1cn(CC(=O)N2C[C@H](F)C[C@H]2C(=O)Nc2cccc(-c3ccccc3Cl)c2F)c2sccc12 [Compound 98, 6-(2-((2S,4R)-2-(2′-chloro-2-fluorobiphenyl-3-ylcarbamoyl)-4-fluoropyrrolidin-1-yl)-2-oxoethyl)-6H-thieno[2,3-b]pyrrole-4-carboxamide]",< 1000
9,"NC(=O)c1nn(CC(=O)N2C[C@H](F)C[C@H]2C(=O)Nc2cccc(-c3ccccc3Cl)c2F)c2ccsc12 [Compound 99, 1-(2-((2S,4R)-2-(2′-chloro-2-fluorobiphenyl-3-ylcarbamoyl)-4-fluoropyrrolidin-1-yl)-2-oxoethyl)-1H-thieno[3,2-c]pyrazole-3-carboxamide]",< 1000
10,"NC(=O)c1nn(CC(=O)N2C[C@H](F)C[C@H]2C(=O)Nc2cccc(-c3c(F)cc(F)cc3Cl)n2)c2cnccc12 [Compound 100, 1-(2-((2S,4R)-2-(6-(2-chloro-4,6-difluorophenyl)pyridin-2-ylcarbamoyl)-4-fluoropyrrolidin-1-yl)-2-oxoethyl)-1H-pyrazolo[3,4-c]pyridine-3-carboxamide]",< 1000
11,"NC(=O)c1nn(CC(=O)N2C[C@H](F)C[C@H]2C(=O)Nc2cccc(-c3c(F)cc(F)cc3Cl)c2)c2cnccc12 [Compound 101, 1-(2-((2S,4R)-2-(2′-chloro-4′,6′-difluorobiphenyl-3-ylcarbamoyl)-4-fluoropyrrolidin-1-yl)-2-oxoethyl)-1H-pyrazolo[3,4-c]pyridine-3-carboxamide]",< 1000
12,"NC(=O)c1nn(CC(=O)N2C[C@H](F)C[C@H]2C(=O)Nc2cccc(-c3ccccc3Cl)c2F)c2c1CCCC2 [Compound 104, 1-(2-((2S,4R)-2-(2′-chloro-2-fluorobiphenyl-3-ylcarbamoyl)-4-fluoropyrrolidin-1-yl)-2-oxoethyl)-4,5,6,7-tetrahydro-1H-indazole-3-carboxamide]",< 1000
13,"NC(=O)c1nn(CC(=O)N2C[C@H](F)C[C@H]2C(=O)Nc2cccc(Br)n2)c2ccsc12 [Compound 106, 1-(2-((2S,4R)-2-(6-bromopyridin-2-ylcarbamoyl)-4-fluoropyrrolidin-1-yl)-2-oxoethyl)-1H-thieno[3,2-c]pyrazole-3-carboxamide]",< 1000
14,"NC(=O)c1nn(CC(=O)N2[C@@H]3C[C@@H]3C[C@H]2C(=O)NCc2cccc(Cl)c2F)c2ccsc12 [Compound 107, 1-(2-((1R,3S,5R)-3-(3-chloro-2-fluorobenzylcarbamoyl)-2-azabicyclo[3.1.0]hexan-2-yl)-2-oxoethyl)-1H-thieno[3,2-c]pyrazole-3-carboxamide]",< 1000
15,"COc1ncc(-c2cn(CC(=O)N3C[C@H](F)C[C@H]3C(=O)Nc3cccc(-c4ccccc4Cl)c3F)nc2C(N)=O)cn1 [Compound 110, 1-(2-((2S,4R)-2-(2′-chloro-2-fluorobiphenyl-3-ylcarbamoyl)-4-fluoropyrrolidin-1-yl)-2-oxoethyl)-4-(2-methoxypyrimidin-5-yl)-1H-pyrazole-3-carboxamide]",> 10000
16,"N#Cc1cccc2c(C(N)=O)nn(CC(=O)N3C[C@H](F)C[C@H]3C(=O)Nc3cccc(-c4ccccc4Cl)c3F)c12 [Compound 111, 1-(2-((2S,4R)-2-(2′-chloro-2-fluorobiphenyl-3-ylcarbamoyl)-4-fluoropyrrolidin-1-yl)-2-oxoethyl)-7-cyano-1H-indazole-3-carboxamide]",< 1000
17,"CC(=O)c1cn(CC(=O)N2C[C@H](F)C[C@H]2C(=O)Nc2cccc(-c3ccccc3Cl)c2F)c2c(-c3ccc(Cl)nc3)cccc12 [Compound 112, (2S,4R)-1-(2-(3-acetyl-7-(6-chloropyridin-3-yl)-1H-indol-1-yl)acetyl)-N-(2′-chloro-2-fluorobiphenyl-3-yl)-4-fluoropyrrolidine-2-carboxamide]",< 1000
18,"Cc1cc2c(s1)c(C(N)=O)nn2CC(=O)N1C[C@H](F)C[C@H]1C(=O)Nc1cccc(-c2ccccc2Cl)c1F [Compound 113, 1-(2-((2S,4R)-2-(2′-chloro-2-fluorobiphenyl-3-ylcarbamoyl)-4-fluoropyrrolidin-1-yl)-2-oxoethyl)-5-methyl-1H-thieno[3,2-c]pyrazole-3-carboxamide]",< 1000
19,"CC(=O)c1cn(CC(=O)N2C[C@H](F)C[C@H]2C(=O)Nc2cccc(-c3ccccc3Cl)c2F)c2c(-c3cn[nH]c3)cccc12 [Compound 114, (2S,4R)-1-(2-(3-acetyl-7-(1H-pyrazol-4-yl)-1H-indol-1-yl)acetyl)-N-(2′-chloro-2-fluorobiphenyl-3-yl)-4-fluoropyrrolidine-2-carboxamide]",< 1000
20,"CC(=O)c1cn(CC(=O)N2C[C@H](F)C[C@H]2C(=O)Nc2cccc(-c3ccccc3Cl)c2F)c2c(C3CC3)cccc12 [Compound 115, (2S,4R)-1-(2-(3-acetyl-7-cyclopropyl-1H-indol-1-yl)acetyl)-N-(2′-chloro-2-fluorobiphenyl-3-yl)-4-fluoropyrrolidine-2-carboxamide]",< 1000
21,"CC(=O)c1ccc(Cl)c(-c2cccc(NC(=O)[C@@H]3C[C@@H](F)CN3C(=O)Cn3nc(C(N)=O)c4ccccc43)c2F)c1 [Compound 117, 1-(2-((2S,4R)-2-(5′-acetyl-2′-chloro-2-fluorobiphenyl-3-ylcarbamoyl)-4-fluoropyrrolidin-1-yl)-2-oxoethyl)-1H-indazole-3-carboxamide]",< 1000
22,"Cc1cc2c(s1)c(C(N)=O)nn2CC(=O)N1C[C@H](F)C[C@H]1C(=O)Nc1cccc(Br)n1 [Compound 118, 1-(2-((2S,4R)-2-(6-bromopyridin-2-ylcarbamoyl)-4-fluoropyrrolidin-1-yl)-2-oxoethyl)-5-methyl-1H-thieno[3,2-c]pyrazole-3-carboxamide]",< 1000
23,"CC(=O)c1cn(CC(=O)N2C[C@H](F)C[C@H]2C(=O)Nc2cccc(Br)n2)c2ccc(C3(NC(=O)c4ncccn4)CC3)cc12 [Compound 119, N-(1-(3-acetyl-1-(2-((2S,4R)-2-(6-bromopyridin-2-ylcarbamoyl)-4-fluoropyrrolidin-1-yl)-2-oxoethyl)-1H-indol-5-yl)cyclopropyl)pyrimidine-2-carboxamide]",< 1000
24,"NC(=O)c1nn(CC(=O)N2C[C@H](F)C[C@H]2C(=O)Nc2cccc(-c3cc(OC(F)(F)F)ccc3Cl)c2F)c2ccccc12 [Compound 120, 1-(2-((2S,4R)-2-(2′-chloro-2-fluoro-5′-(trifluoromethoxy)biphenyl-3-ylcarbamoyl)-4-fluoropyrrolidin-1-yl)-2-oxoethyl)-1H-indazole-3-carboxamide]",< 1000
25,"NC(=O)c1cn(CC(=O)N2C[C@H](F)C[C@H]2c2nc3cc(-c4ccccc4Cl)ccc3[nH]2)c2ccccc12 [Compound 121, 1-(2-((2S,4R)-2-(5-(2-chlorophenyl)-1H-benzo[d]imidazol-2-yl)-4-fluoropyrrolidin-1-yl)-2-oxoethyl)-1H-indole-3-carboxamide]",> 10000
26,"NC(=O)c1nn(CC(=O)N2C[C@H](F)C[C@H]2C(=O)Nc2cccc(-c3ccc4[nH]cnc4c3Cl)c2F)c2ccccc12 [Compound 122, 1-(2-((2S,4R)-2-(3-(4-chloro-1H-benzo[d]imidazol-5-yl)-2-fluorophenylcarbamoyl)-4-fluoropyrrolidin-1-yl)-2-oxoethyl)-1H-indazole-3-carboxamide]",< 1000
